{"source": "patent US20210128685A1", "about": "“PEDF-DERIVED PEPTIDES FOR PROMOTING MEIBOMIAN GLAND REGENERATION AND USES THEREOF” (BRIM Biotechnology, Inc., priority 2018, published 2021)", "key": {"[1]": {"assay": "Alanine scanning and variants of the 29-mer (activities)"}, "[2]": {"assay": "Measurement of tear volume (phenol red thread tear test)", "format": "in vivo, C57BL/6 mice", "settings": "old mice, weekly subconjunctival injection up to 4 weeks; weeks 1, 2, 3, 4 and 8", "description": "(§1) Twelve to fifteen (12-15) months old C57BL/6 mice and 4-8 months old C57BL/6 mice were used. These mice were kept in standard pathogen-free environment at 24° C.±1° C., relatively humidity 60%±10%. All procedures were approved by the Mackay Memorial Hospital Review Board for animal investigation and were conducted in accordance with the ARVO statement for the Use of Animals in Ophthalmic and Vision Research. Mice were anesthetized by an intraperitoneal injection of a mixture of zoletil (6 mg/kg) and xylazine (3 mg/kg). One drop of 0.5% proparacaine hydrochloride (Alcaine; Alcon, Fort Worth, Tex., USA) was given before any ocular procedure.\n(§2) The 29-mer was reconstituted in DMSO to a final concentration 100 μM. A separated dose of 10 μl of 29-mer (100 μM) mixed with 90 μl of phosphate-buffered saline (PBS) was injected into the upper and lower conjunctival fornix. 10 μl of DMSO mixed with 90 μl of PBS served as a control. […]\nThe amount of tears was measured with the phenol red thread tear test using ZONE-QUICK cotton threads (Yokota, Tokyo, Japan).^19,20 After general anesthesia, the lower eyelid was pulled down slightly, and a 1 mm portion of the thread was placed on the palpebral conjunctiva at the point ⅓ of the distance from the lateral canthus. […] The red portion of the thread is measured in millimeters."}, "[3]": {"assay": "Tear film break-up time (TBUT)", "format": "in vivo, C57BL/6 mice", "settings": "old mice, weekly subconjunctival injection up to 4 weeks; week 1 to week 4, difference significant up to 8 weeks", "description": "as §1, §2\nTo avoid the reduced lipids secretion resulting from no eye blinking under long-term anesthesia, Tear break-up time (TBUT)^19,20 was performed immediately after mice were anesthetized. […] After three compulsory blinks, TBUT was recorded in […] under a slit-lamp with a blue-free barrier filter. […]"}, "acinar progenitor cells": {"test_system": "acinar progenitor cells", "assay": "5-Bromo-2'-deoxyuridine (BrdU) incorporation assay in upper eyelids after subconjunctival injection", "format": "in vivo, C57BL/6 mice", "settings": "for BrdU-positive cells per acinus: 24 hours after subconjunctival injection; for BrdU-positive cells in acinar base (cell proliferation): day 5 after single subconjunctival injection", "description": "as §1\n(§3) The 29-mer was reconstituted in DMSO to a final concentration 100 μM. A separated dose of 10 μl of 29-mer (100 μM) mixed with 90 μl of phosphate-buffered saline (PBS) was injected into the upper and lower conjunctival fornix. 10 μl of DMSO mixed with 90 μl of PBS served as a control. To evaluate the effect of 29-mer on tear film break-up time (TBUT) and tear secretion of old mice, subconjunctival injection of 29-mer was introduced weekly till one month and then followed up for two months.\nAfter subconjunctival injection of 29-mer or DMSO, 5-Bromo-2′deoxyuridine (BrdU) 0.1 mg/g of body weight was injected intraperitoneally. The upper eyelids were harvested at 24 hours to evaluate the proliferation of acinar progenitor cells. To study the mitosis of cells, mice were administered by intraperitoneal injections of BrdU daily for 3 days, and the upper eyelids were harvested at day 5. Before performing immunohistochemistry of BrdU, slides were treated with 1 N HCL at 95° C. for 20 minutes.\nImmunohistochemistry (IHC) was performed as previously described and modified.^22 Formalin-fixed, paraffin-embedded, mice specimens were deparaffinized in xylene and rehydrated in a graded series of ethanol concentrations. Slides were blocked with 10% goat serum for 60 minutes and then incubated with primary antibody against BrdU (1:800 dilution), PEDF (1:50), or p63 (1:200) overnight at 4° C. The slides were subsequently incubated with the appropriate peroxidase-labeled goat immunoglobulin (1:500 dilution; Chemicon, Temecula, Calif.) for 20 minutes and then incubated with chromogen substrate (3,3-diaminobenzidine) for 2 minutes before counterstaining with hematoxylin. Quantification was estimated based on high quality images captured using a Pannoramic digital slide scanners (3Dhistech Ltd. Budapest, Hungary)."}, "[4]": {"test_system": "myogenic stem cells and C2C12 myoblasts", "settings": "cited from earlier work"}, "meibocytes": {"test_system": "meibocytes", "assay": "Oil Red O staining of eyelid cryosections for lipids", "format": "in vivo, C57BL/6 mice", "settings": "old mice, versus DMSO", "description": "as §1, §3\nEyelid tissues were embedded in OCT and sectioned at 8 μm of thickness. Frozen sections were placed in 60% 2-propanol for 1 minute, stained with filtered ORO solution for 15 minutes, rinsed with PBS and counterstained with hematoxylin.^4"}, "[5]": {"test_system": "acinar progenitor cells (p63-expressing cells)", "assay": "Immunohistochemistry of stem cell marker p63 in upper eyelids 5 days after single treatment", "format": "in vivo, C57BL/6 mice", "settings": "aging (old) mice", "description": "as §1, §2\nImmunohistochemistry (IHC) was performed as previously described and modified.^22 Formalin-fixed, paraffin-embedded, mice specimens were deparaffinized in xylene and rehydrated in a graded series of ethanol concentrations. […] Quantification was estimated based on high quality images captured using a Pannoramic digital slide scanners (3Dhistech Ltd. Budapest, Hungary)."}, "Meibomian gland": {"test_system": "Meibomian gland", "assay": "Eyelid whole mount Oil Red O (ORO) staining, MG size", "format": "in vivo, C57BL/6 mice", "settings": "old mice, weekly subconjunctival injection, at one month", "description": "as §1, §2\nAt one month, upper eyelids were subjected to whole mount Oil Red O (ORO) staining. The size of MG tissue in whole mount was quantified using the color range selection and histogram tool with a computer-assisted image analyzer (Adobe Photoshop 7.0) and was calculated in Pixels. […]"}, "limbus stem cells": {"test_system": "limbus stem cells", "settings": "rabbit; cited from earlier work"}}}
{"substance": "SLGAEHRTESVIHRALYYDLITNPDIHST (listed as Mus musculus) [mo-29mer, mouse variant of the 29-mer]", "values": [{"measurement": "activities of 29-mer variants", "setting": "[1]", "value": "active"}]}
{"substance": "SLGAEQRTESIIHRALYYDLISSPDIHGT (listed as Homo sapiens) [29-mer, PEDF-derived short peptide, human PEDF residues 93-121 (Ser93-Thr121)]", "values": [{"measurement": "Tear secretion test versus control", "setting": "[2]", "value": "invariant"}, {"measurement": "TBUT versus control", "setting": "[3]", "value": "significantly longer"}, {"measurement": "BrdU-positive cells per acinus", "setting": "acinar progenitor cells; old mice", "value": "1.67±0.58", "unit": "cells/per acinus"}, {"measurement": "BrdU-positive cells in acinar base (cell proliferation)", "setting": "acinar progenitor cells; old mice", "value": "4.29±1.19"}, {"measurement": "BrdU-positive cells per acinus", "setting": "acinar progenitor cells; young mice", "value": "2.35±0.73", "unit": "cells/per acinus"}, {"measurement": "BrdU-positive cells in acinar base (cell proliferation)", "setting": "acinar progenitor cells; young mice", "value": "6.70±1.35"}, {"measurement": "proliferation of myogenic stem cells and C2C12 myoblasts", "setting": "[4]", "value": "induce proliferation"}, {"measurement": "ORO staining within the cytoplasm of differentiating meibocytes, cross sections", "setting": "meibocytes", "value": "more overall ORO staining"}, {"measurement": "number of p63-expressing cells per acinus", "setting": "[5]", "value": "10.98±2.75"}, {"measurement": "MG acinar size, whole mount ORO, upper eyelids", "setting": "Meibomian gland", "value": "2347530±34986.4", "unit": "pixels/eyelid"}]}
{"substance": "44-mer: 44-mer motif of PEDF, amino acid positions Val78-Thr121 (VLLSPLSVATALSALSLGAEQRTESIIHRALYYDLISSPDIHGT; UniProt P36955 78-121, looked up, fragment)", "values": [{"measurement": "stem cells proliferation and regeneration in the limbus", "setting": "limbus stem cells", "value": "induce stem cells proliferation and regeneration"}]}
{"substance": "SLGAEHRTESVIHR (listed as Mus musculus) [mo-14mer, mouse variant of the 14-mer]", "values": [{"measurement": "activities of 29-mer variants", "setting": "[1]", "value": "active"}]}
